Results as given in patent US20220324865A1 (Bayer Aktiengesellschaft, priority 2018, published 2022).

target: T1, human EP3 receptor (Homo sapiens, UniProt P43115); test: Cellular in vitro assay for determining EP3 receptor activity (human EP3 cell line, sulprostone-stimulated calcium luminescence); assay type: cell-based; conditions: CHO cells expressing human EP3 and mitochondrial Clytin; antagonist mode, sulprostone at EC50; read-out: EP3 CHO mtCLY ANTAG IC50
T1 construct: expressed in transfected cells; host or cells: CHO K1 (Chinese Hamster Ovary), stably co-transfected with Galpha16 and mitochondrial clytin
T1 sequence (P43115 1-390): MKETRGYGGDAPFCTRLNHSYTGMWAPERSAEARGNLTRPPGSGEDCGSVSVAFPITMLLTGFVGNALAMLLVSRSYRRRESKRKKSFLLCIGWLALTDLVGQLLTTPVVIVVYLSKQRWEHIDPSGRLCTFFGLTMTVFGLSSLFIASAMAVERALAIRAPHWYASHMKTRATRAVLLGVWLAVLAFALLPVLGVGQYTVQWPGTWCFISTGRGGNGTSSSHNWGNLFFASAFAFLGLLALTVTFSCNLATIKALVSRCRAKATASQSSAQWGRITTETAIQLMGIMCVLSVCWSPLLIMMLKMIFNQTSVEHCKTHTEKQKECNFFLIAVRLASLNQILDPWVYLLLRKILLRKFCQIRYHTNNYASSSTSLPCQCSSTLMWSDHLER
How it was run: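 Antagonist activity was measured as inhibition of the luminescent calcium signal elicited by EC50 sulprostone, following 10 min compound pretreatment. The cell line was recombinant CHO K1 co-expressing human EP3, Gα16 and the photoprotein Clytin, reconstituted with coelenterazine.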

Structure (SMILES) | IC50 [nM]
Cc1ccc(-c2cn3nc(C(=O)NCC(O)C(F)(F)F)c(C4CC4)c3c(=O)[nH]2)cc1F (single isomer, unassigned; enantiomer2) [Example 1-161, 3-Cyclopropyl-6-(3-fluoro-4-methylphenyl)-4-oxo-N-(3,3,3-trifluoro-2-hydroxpropyl)-4,5-dihydropyrazolo[1,5-a]pyrazine-2-carboxamide (enantiomer2)] | 5.7
Cc1ccc(-c2cn3nc(C(=O)NC(C)COc4cc(Cl)cc(Cl)c4)cc3c(=O)[nH]2)cc1C (stereo not drawn) [6-3] | 7.95
Cc1c(C(=O)NC2(c3ccc(F)cc3)CCN(CC(F)(F)F)CC2)nn2cc(-c3ccc4ccccc4c3)[nH]c(=O)c12 [6-5] | 4.85
CC(NC(=O)c1cc2c(=O)[nH]c(-c3ccc4ccccc4c3)cn2n1)c1cnc(OCC(F)(F)F)cn1 (stereo not drawn) [6-7] | 7
O=C(NCc1ncc(C(F)(F)F)cc1Cl)c1nn2cc(-c3ccc4ccccc4c3)[nH]c(=O)c2c1C(F)(F)F [6-8] | 1.05
Cc1ccc(-c2cn3nc(C(=O)NCc4ncc(C(F)(F)F)cc4Cl)cc3c(=O)[nH]2)cc1C [6-9] | 5.75
CCn1cc(CNC(=O)c2nn3cc(-c4ccc5ccccc5c4)[nH]c(=O)c3c2Cl)c(C)n1 [6-10] | 1.4
CCn1nccc1CNC(=O)c1nn2c(C)c(-c3ccc(C)c(C)c3)[nH]c(=O)c2c1C(F)(F)F [6-13] | 9.3
O=C(NCCc1ccccc1)c1cc2c(=O)[nH]c(-c3ccc4ccccc4c3)cn2n1 [6-14] | 8.25
COc1ccc(CCNC(=O)c2cc3c(=O)[nH]c(-c4ccc(C)c(Cl)c4)cn3n2)cc1OC [6-15] | 2.37
O=C(NCc1ccccc1)c1cc2c(=O)[nH]c(-c3ccc4ccccc4c3)cn2n1 [6-16] | 4.16
O=C(NC1(c2ccc(F)cc2)CC1)c1cc2c(=O)[nH]c(-c3ccc4ccccc4c3)cn2n1 [6-18] | 1.75
O=C(NCCc1ccccc1)c1cc2c(=O)[nH]c(-c3ccc4c(c3)OCCO4)cn2n1 [6-21] | 5.35
Cc1ccc(-c2cn3nc(C(=O)NCc4ccccc4)cc3c(=O)[nH]2)cc1C [6-22] | 4
O=C(NC1(c2ccc(F)cc2)CC1)c1cc2c(=O)[nH]c(-c3ccc4c(c3)OCCO4)cn2n1 [6-23] | 3.1
Cc1ccc(-c2cn3nc(C(=O)NC4(c5ccc(F)cc5)CC4)cc3c(=O)[nH]2)cc1C [6-24] | 2.03
CC(NC(=O)c1cc2c(=O)[nH]c(-c3ccc4cccnc4c3)cn2n1)c1ccc(F)cc1 (stereo not drawn) [6-27] | 2.63
CC(NC(=O)c1cc2c(=O)[nH]c(-c3ccc4cccnc4c3)cn2n1)c1ccc(F)c(F)c1 (stereo not drawn) [6-28] | 3.9
CCCNC(=O)c1cc2c(=O)[nH]c(-c3ccc4cccc(F)c4c3)cn2n1 [6-40] | 7.5
Cc1ccc(-c2cn3nc(C(=O)NC(C)(C)c4ccc(F)cc4)cc3c(=O)[nH]2)cc1C [6-45] | 2.55
COC[C@H](NC(=O)c1cc2c(=O)[nH]c(-c3ccc4c(c3)OCCO4)cn2n1)c1ccccc1 [6-46] | 2.43
O=C(NC(CCn1cncn1)c1ccccc1)c1cc2c(=O)[nH]c(-c3ccc4c(c3)OCCO4)cn2n1 (stereo not drawn) [6-47] | 2.17

Structure (SMILES) | IC50 [nM]
O=C(NC(CCn1cncn1)c1ccccc1)c1cc2c(=O)[nH]c(-c3ccc4ccccc4c3)cn2n1 (stereo not drawn) [6-48] | 5.7
COC[C@@H](NC(=O)c1cc2c(=O)[nH]c(-c3ccc4c(c3)OCCO4)cn2n1)c1ccccc1 [6-49] | 1.6
CC(C)(C)OC(=O)N1CC(NC(=O)c2cc3c(=O)[nH]c(-c4ccc5c(c4)OCCO5)cn3n2)(c2ccc(F)cc2)C1 [6-54] | 3.35
Cc1ccc(-c2cn3nc(C(=O)NC4(c5ccc(F)cc5)COC4)cc3c(=O)[nH]2)cc1C [6-55] | 1.53
O=C(NC1(c2ccc(F)cc2)COC1)c1cc2c(=O)[nH]c(-c3ccc4ccccc4c3)cn2n1 [6-56] | 0.74
COc1ccc(C2(NC(=O)c3cc4c(=O)[nH]c(-c5ccc6c(c5)OCCO6)cn4n3)CN(C(=O)OC(C)(C)C)C2)cc1 [6-58] | 2.3
[N-]=[N+]=NC[C@H](NC(=O)c1cc2c(=O)[nH]c(-c3ccc4ccccc4c3)cn2n1)c1ccccc1 [6-59] | 4.2
C[C@@H](NC(=O)c1cc2c(=O)[nH]c(-c3cnc4ccccc4c3)cn2n1)c1ccc(F)cc1 [6-62] | 3.13
COc1ccc(C2(NC(=O)c3cc4c(=O)[nH]c(-c5ccc6ccccc6c5)cn4n3)CN(C)C2)cn1 [6-63] | 7.1
Cc1cccc2ncc(-c3cn4nc(C(=O)N[C@H](C)c5ccc(F)cc5)cc4c(=O)[nH]3)cc12 [6-64] | 2.5
O=C(N[C@H](CN1CCOCC1)c1ccc(F)cc1)c1cc2c(=O)[nH]c(-c3ccc4ccccc4c3)cn2n1 [6-67] | 1.58
C[C@@H](NC(=O)c1nn2cc(-c3ccc4ccccc4c3)[nH]c(=O)c2c1C#N)c1ccc(F)cc1 [6-68] | 2.35
N#Cc1c(C(=O)NC2(c3ccc(F)cc3)CC2)nn2cc(-c3ccc4ccccc4c3)[nH]c(=O)c12 [6-70] | 4.75
Cc1c(C(=O)NC2(c3ccc(F)cc3)CC2)nn2cc(-c3ccc4ccccc4c3)[nH]c(=O)c12 [6-71] | 2.85
O=C(N[C@H]1c2ccccc2C[C@H]1O)c1cc2c(=O)[nH]c(-c3ccc4ccccc4c3)cn2n1 [6-72] | 7.93
O=C(N[C@H]1c2ccccc2C[C@@H]1O)c1cc2c(=O)[nH]c(-c3ccc4ccccc4c3)cn2n1 [6-73] | 8.3
O=C(N[C@@H]1c2ccccc2C[C@@H]1O)c1cc2c(=O)[nH]c(-c3ccc4ccccc4c3)cn2n1 [6-74] | 5.77
COc1ccc(CCNC(=O)c2cc3c(=O)[nH]c(-c4ccc5ccccc5c4)cn3n2)cc1OC [6-75] | 8.63
COc1ccc(CNC(=O)c2cc3c(=O)[nH]c(-c4ccc5c(c4)OCCO5)cn3n2)cc1OC [6-76] | 1.87
COc1ccc(CCNC(=O)c2cc3c(=O)[nH]c(-c4ccc5c(c4)OCCO5)cn3n2)cc1OC [6-77] | 2.28
COc1ccc(CNC(=O)c2cc3c(=O)[nH]c(-c4ccc(C)c(Cl)c4)cn3n2)cc1OC [6-80] | 2.2

The remaining lines, values ahead:

IC50 [nM] | Structure (SMILES)
3.85 | Cc1ccc(-c2cn3nc(C(=O)NC(C)c4cnc(OCC(F)(F)F)cn4)cc3c(=O)[nH]2)cc1C (stereo not drawn) [6-2]
2.8 | CC(NC(=O)c1cc2c(=O)[nH]c(-c3ccc4ccccc4c3)cn2n1)c1ccc(OCC(F)(F)F)cn1 (stereo not drawn) [6-6]
4.65 | O=C(N[C@H](CCO)c1ccc(F)cc1)c1cc2c(=O)[nH]c(-c3cnc4ccccc4c3)cn2n1 [6-11]
3.05 | O=C(N[C@H](CCO)c1ccc(F)cc1)c1cc2c(=O)[nH]c(-c3ccc4ccccc4n3)cn2n1 [6-12]
3.75 | COC(=O)C(NC(=O)c1cc2c(=O)[nH]c(-c3ccc4ccccc4c3)cn2n1)c1ccc(F)cc1 (stereo not drawn) [6-17]
3.1 | CC(NC(=O)c1cc2c(=O)[nH]c(-c3ccc4ccccc4c3)cn2n1)c1ccc(F)cc1 (stereo not drawn) [6-19]
9.1 | Cc1ccc(-c2cn3nc(C(=O)NC(C)c4ccc(F)cc4)cc3c(=O)[nH]2)cc1C(F)(F)F (stereo not drawn) [6-25]
5 | Cc1ccc(-c2cn3nc(C(=O)NC4(c5ccc(F)cc5)CC4)cc3c(=O)[nH]2)cc1C(F)(F)F [6-26]
2.27 | CC(C)(C)OC(=O)NCC(NC(=O)c1cc2c(=O)[nH]c(-c3ccc4cccnc4c3)cn2n1)c1ccc(F)cc1 (stereo not drawn) [6-29]
2.15 | O=C(NC(CO)c1ccc(F)cc1)c1cc2c(=O)[nH]c(-c3ccc4cccnc4c3)cn2n1 (stereo not drawn) [6-30]
8.03 | COc1ccc(C(CCO)NC(=O)c2cc3c(=O)[nH]c(-c4ccc(C(F)(F)F)c(C)c4)cn3n2)cc1 (stereo not drawn) [6-31]
7.5 | COc1ccc(C(CCO)NC(=O)c2cc3c(=O)[nH]c(-c4ccc(C)c(C(F)(F)F)c4)cn3n2)cc1 (stereo not drawn) [6-32]
8.15 | Cc1cc(-c2cn3nc(C(=O)NC(C)c4ccccc4OC(F)F)cc3c(=O)[nH]2)ccc1C(F)(F)F (stereo not drawn) [6-33]
1.2 | Cc1ccc(-c2cn3nc(C(=O)N[C@H](C)c4ccc(F)cc4)cc3c(=O)[nH]2)cc1C [6-36]
1.31 | O=C(NC(CO)c1ccc(F)cc1)c1cc2c(=O)[nH]c(-c3ccc4cccc(F)c4c3)cn2n1 (stereo not drawn) [6-37]
1.45 | C[C@@H](NC(=O)c1cc2c(=O)[nH]c(-c3ccc4cccc(F)c4c3)cn2n1)c1ccc(F)cc1 [6-38]
6.03 | O=C(NCCC(F)(F)F)c1cc2c(=O)[nH]c(-c3ccc4cccc(F)c4c3)cn2n1 [6-41]
4.85 | Cc1ccc(-c2cn3nc(C(=O)NC(CNC(=O)OC(C)(C)C)c4ccc(F)cc4)cc3c(=O)[nH]2)cc1C (stereo not drawn) [6-42]
3.15 | CC(C)(C)OC(=O)NCC(NC(=O)c1cc2c(=O)[nH]c(-c3ccc4c(c3)OCCO4)cn2n1)c1ccc(F)cc1 (stereo not drawn) [6-43]
1.3 | COC[C@H](NC(=O)c1cc2c(=O)[nH]c(-c3ccc(C)c(C)c3)cn2n1)c1ccccc1 [6-50]
2.65 | COC[C@@H](NC(=O)c1cc2c(=O)[nH]c(-c3ccc4ccccc4c3)cn2n1)c1ccccc1 [6-51]
3.55 | CC(CC(F)(F)F)NC(=O)c1cc2c(=O)[nH]c(-c3ccc4ccccc4c3)cn2n1 (stereo not drawn) [6-52]
4.13 | CCC(NC(=O)c1cc2c(=O)[nH]c(-c3ccc4ccccc4c3)cn2n1)C(F)(F)F (stereo not drawn) [6-61]
2.97 | C[C@@H](NC(=O)c1cc2c(=O)[nH]c(-c3ccc4ccccc4c3)cn2n1)c1ccc(F)cc1 [6-78]
4.57 | C[C@H](NC(=O)c1cc2c(=O)[nH]c(-c3ccc4ccccc4c3)cn2n1)c1ccc(F)cc1 [6-79]
2.8 | Cc1ccc(-c2cn3nc(C(=O)N[C@H](C)c4ccc(F)cc4)cc3c(=O)[nH]2)cc1Cl [6-81]
